In patent publication US7405063B2, “Biooxidation capabilities of Candida sp” (Cognis Corporation, priority 2000, dated 2008):
Marks after values point to notes of the source that are not given here.

What was measured:
C. tropicalis = assay: Toxicity tests of additional substrates (absorbance at 600 nm); type: cell-based; settings: for Absorbance at 600 nm: 24 hours, added without solvent
Experimental: Additional substrates were to be tested for bioconversion following a slightly different protocol than the one noted above in Example 3. Those substrates also had to be tested for toxicity similar to the test described in Example 2, to determine the highest concentration at which a substrate could be added to a culture broth without being toxic, inhibiting growth, or interfering with the bioconversion process. C. tropicalis was grown in the presence of the substrate at three different concentrations and growth was monitored spectrophotometrically. In contrast to Example 2, all test substrates were added directly to the culture medium without dissolving in solvent. The tests were completed as follows:
On the first day, H5343 was grown in YPD medium (25.0 ml seed culture) overnight on a rotary shaker at 30° C. and 250 rpm. The next day 1.0 ml of the seed culture was used to inoculate a new flask of 50 ml YPD. This culture was grown overnight on a rotary shaker at 30° C. and 250 rpm. […]
Two control flasks were each inoculated with H5343 in 25 ml YPD. All flasks were incubated on a rotary shaker at 30° C. and 250 rpm.
After 24 hours incubation, the absorbance at 600 nm of the test and control flask cultures was determined, using uninoculated YPD broth as blank. Cultures were diluted so that the OD^600 nm measured between 0.15 and 0.3.
For strongly inhibitory substrates, a concentration of 0.1-0.2% was chosen for the bioconversion tests.

[1] = test system: C. tropicalis strain H5343; assay: Toxicity tests of substrates (growth by absorbance at 600 nm, streak plates); type: cell-based; settings: for ABS 600.0 nm: 48 h, 30° C., dilution in YPD 1:100
Experimental: The toxicity test used here was similar to that used for the solvents described in Example 1. The goal was to determine the highest concentration at which a substrate could be added to a culture broth without being toxic, inhibiting growth, or interfering with the bioconversion process. C. tropicalis strain H5343 was grown in the presence of the substrate at different concentrations and growth was monitored spectrophotometrically. In order to determine if the substrate was lethal or was simply inhibiting growth, the cultures were examined under the microscope and streak plates of YPD and LB agar were prepared. Contamination of the culture with an unwanted organism could also be detected using this approach.
6 ml was transferred to the first tube and 3 ml to the rest. 1% substrate was added to the first tube and then serially diluted to give concentrations from 1% to 0.015%. Since the last tube was initially empty, the concentration in the last two tubes was the same. […] As a growth-control one culture without substrate was inoculated.
To determine if contamination had occurred, each culture was examined under the microscope and streak plates of both YPD and LB were made from the 1% and the inoculated 0.015% tube.

[2] = substrate concentration 0.01563%
[3] = substrate concentration 0.0313%

SMILES	Absorbance at 600 nm (C. tropicalis; substrate concentration 0.1%)	Absorbance at 600 nm (C. tropicalis; substrate concentration 0.5%)	Absorbance at 600 nm (C. tropicalis; substrate concentration 1.0%)	ABS 600.0 nm [1, 2]	ABS 600.0 nm [1, 3]	ABS 600.0 nm ([1]; substrate concentration 0.063%)	ABS 600.0 nm ([1]; substrate concentration 0.13%)	ABS 600.0 nm ([1]; substrate concentration 0.25%)	ABS 600.0 nm ([1]; substrate concentration 0.5%)	ABS 600.0 nm ([1]; substrate concentration 1%)	further results
CCCCC(C(=O)O)C(=O)O [Butylmalonic Acid]	27.43	27.13	8.53	–	–	–	–	–	–	–	–
C=C(C)[C@H]1CC=C(C)CC1 [R(+) limonene]	–	–	–	0.123	0.117	0.106	0.007	0.000	0.000	0.000	–
CCCC[S+]([O-])CCCC [Butylsulfoxide, dibutylsulfoxide]	15.63	11.37	5.81	–	–	–	–	–	–	–	–
CCCCCCCCCCCCCCC(O)CO (centres unmarked) [1,2-Hexadecanediol]	3.103	3.033	2.013	–	–	–	–	–	–	–	–
CCCCC1CCCCC1 [Butylcyclohexane]	22.03	21.13	20.33	–	–	–	–	–	–	–	–
CCCCCCCCCCCCN [Dodecyclamine, Dodecylamine]	–	–	–	0.000	0.000	0.000	0.000	0.000	0.000	0.000	Toxic at (concentration) ([1]; Phase I screening summary): Toxic at 0.01%
CC1CCCCC1 [Methylcyclohexane]	–	–	–	–	–	–	–	–	–	–	Absorbance at 600 nm (C. tropicalis; substrate concentration 0.06%): 13.7; Absorbance at 600 nm (C. tropicalis; substrate concentration 0.3%): 15.6; Absorbance at 600 nm (C. tropicalis; substrate concentration 0.6%): 0.16
C/C=C/CCCCCC [trans-2-nonene]	–	–	–	0.112	0.100	0.105	0.066	0.000	0.000	0.000	–
CCCCCC/C=C/CCCCCC [trans-7-tetradecene]	–	–	–	0.117	0.106	0.112	0.104	0.103	0.107	0.095	–
CCCCCCOCCCCCC [Hexyl Ether, Dihexyl Ether]	12.85	13.21	3.33	–	–	–	–	–	–	–	–
C=COCCCCCCCCCCCC [Dodecylvinylether]	20.43	12.63	7.33	–	–	–	–	–	–	–	–
CCCCCCC(C)O (centres unmarked) [2-Octanol]	0.250	0.235	0.285	–	–	–	–	–	–	–	Toxic at (concentration) (C. tropicalis; Phase II screening summary): Toxic at 0.1%
C=CCCCCCCCCCCCCCCCC [1-Octadecene]	34.93	36.33	34.7	–	–	–	–	–	–	–	–
CCCCCCCCCCCCO [1-Dodecanol]	–	–	–	0.000	0.000	0.000	0.004	0.032**	0.013**	0.267**	–
CCCCC(CC)C(=O)O (centres unmarked) [2-Ethylhexanoic acid]	–	–	–	0.099	0.051	0.000	0.000	0.000	0.000	0.000	–
C=CCCCCCCCCCC [C12 a-Olefin]	–	–	–	0.077	0.119	0.119	0.082	0.080	0.080	0.082	–
C=C(C)[C@@H]1CC=C(C)CC1 [S(−) limonene]	–	–	–	0.104	0.094	0.011	0.002	0.000	0.002	0.002	–
CCCCCCCCC(=O)CCCCCCCC [9-Heptadecanone]	–	–	–	0.100	0.120	0.064	0.103	0.120	0.073	0.004**	–

SMILES	Absorbance at 600 nm (C. tropicalis; substrate concentration 0.1%)	Absorbance at 600 nm (C. tropicalis; substrate concentration 0.5%)	Absorbance at 600 nm (C. tropicalis; substrate concentration 1.0%)	ABS 600.0 nm [1, 2]	ABS 600.0 nm [1, 3]	ABS 600.0 nm ([1]; substrate concentration 0.063%)	ABS 600.0 nm ([1]; substrate concentration 0.13%)	ABS 600.0 nm ([1]; substrate concentration 0.25%)	ABS 600.0 nm ([1]; substrate concentration 0.5%)	ABS 600.0 nm ([1]; substrate concentration 1%)	further results
CCCCCCC(O)CCCCCCCCCCC(=O)O (centres unmarked) [12-Hydroxystearic acid]	–	–	–	–	–	–	–	–	–	0.120	–
CCCCCC(O)CCCCC [6-Undecanol]	–	–	–	0.000**	0.000**	0.000**	0.000**	0.000**	0.000**	0.000**	–
CCCCCCc1ccsc1 [3-Hexylthiophene]	0.933	1.033	1.223	–	–	–	–	–	–	–	–
C=C[C@](C)(O)CC[C@@H]1[C@@]2(C)CCCC(C)(C)[C@@H]2CC[C@@]1(C)O [Indu-Extrakt-sclareol, sclareol]	–	–	–	0.083	0.100	0.157	0.106	0.110	0.092	0.083	–
CCC1CCCCC1 [Ethylcyclohexane]	–	–	–	–	–	–	–	–	–	–	Absorbance at 600 nm (C. tropicalis; substrate concentration 0.06%): 9.45; Absorbance at 600 nm (C. tropicalis; substrate concentration 0.3%): 2.03; Absorbance at 600 nm (C. tropicalis; substrate concentration 0.6%): 16.5
C=CCCCCCCCCCCCC [C14 a-Olefin, 1-tetradecene]	–	–	–	0.061	0.084	0.085	0.097	0.115	0.084	0.087	–
CCCCCCCCC(CCCCCC)C(=O)O (centres unmarked) [2-Hexydecanoic acid, 2-hexyldecanoic acid]	27.73	35.33	41.53	–	–	–	–	–	–	–	–
C=CCCCCCCCCCC [Dodecene]	–	–	–	0.088	0.055	0.079	0.050	0.053	0.032	0.026	–
CCCCCCCCCC(CCCCCCC)C(=O)O (centres unmarked) [2-Heptylundecanoic acid]	–	–	–	0.082	0.077	0.077	0.043	–	0.048	0.268	–
CCCCCCCC/C=C\CCCCCCCCO [HD-Ocenol, oleyl alcohol]	–	–	–	0.093	0.087	0.076	0.115	0.097	0.085	0.087	–
CCCCCCCCCCCCCCCCOC(C)=O [Hexadecyl acetate]	–	–	–	0.110	0.104	0.089	0.083	0.110	0.103	0.155	–
CCCC1CCCCC1 [Propylcyclohexane]	44.13	34.12	1.201	–	–	–	–	–	–	–	–
CCCCCC#CCCCCC [6-Dodecyne]	–	–	–	0.125	0.083	0.074	0.071	0.073	0.071	0.066	–
CCCCCCCCCCCCCCCCOC(=O)CCCCCCCC [Hexadecyl pelargonate]	–	–	–	0.112	0.095	0.075	0.083	0.103	0.102	0.080	–
C=CCCCCCCCCCCCCCC [1-Hexadecene]	38.99	35.33	37.93	–	–	–	–	–	–	–	–
CCCCCOCCCCC [Pentyl Ether, Dipentyl Ether]	2.033	1.863	1.813	–	–	–	–	–	–	–	–
CCCCC(CC)C1OCCN1CCCC (centres unmarked) [3-Butyl-(ethylpentyl)oxazolidine, 3-Butyl-2(1-ethylpentyl)oxazolidine]	–	–	–	–	–	–	–	–	–	–	Absorbance at 600 nm (C. tropicalis; substrate concentration 0.06%): 12.5; Absorbance at 600 nm (C. tropicalis; substrate concentration 0.3%): 0.245; Absorbance at 600 nm (C. tropicalis; substrate concentration 0.6%): 1.18
